Experiments:
Leishmania donovani = assay: Antimicrobial activity against Leishmania donovani; type: functional, organism-based
Trypanosoma cruzi = assay: Antimicrobial activity against Trypanosoma cruzi; type: functional, organism-based; conditions: Trypanosoma cruzi

IC50 (Trypanosoma cruzi) | SMILES | IC50 (Leishmania donovani)
– | CCCC[C@H]1C(=O)O[C@@H]2O[C@@]3(CC)CC[C@H]4[C@H](C)CC[C@@H]1[C@@]24OO3 | 36 µM
96 µM | O=C(/C=C/c1ccc2c(c1)OCO2)N1CCOCC1 | –
32 µM | Cn1c2nc3ccc(C#N)cc3c-2cc2cc(F)ccc21 | –
10 µM | N#CSCCOc1ccc2[nH]c3ccccc3c2c1 | –
– | C[C@@H]1CC[C@H]2CC(=O)O[C@@H]3O[C@@]4(C)CC[C@@H]1[C@@]23OO4 | 242 µM
– | CC[C@H]1C(=O)O[C@@H]2O[C@@]3(C)CC[C@H]4[C@H](C)CC[C@@H]1[C@@]24OO3 | 61 µM
70 µM | O=C=NCCOc1ccc(Oc2ccccc2)cc1 | –
70 µM | [N-]=[N+]=NCCOc1ccc(Oc2ccccc2)cc1 | –
70 µM | [N-]=[N+]=NC(CO)COc1ccc(Oc2ccccc2)cc1 (centres undefined) | –
– | CCC[C@H]1C(=O)O[C@@H]2O[C@@]3(C)CC[C@H]4[C@H](C)CC[C@@H]1[C@@]24OO3 | 17 µM
– | C=CC[C@H]1C(=O)O[C@@H]2O[C@@]3(C)CC[C@H]4[C@H](C)CC[C@@H]1[C@@]24OO3 | 18 µM
– | CCCC[C@H]1C(=O)O[C@@H]2O[C@@]3(C)CC[C@H]4[C@H](C)CC[C@@H]1[C@@]24OO3 | 12 µM
– | CC(C)CCC[C@H]1C(=O)O[C@@H]2O[C@@]3(C)CC[C@H]4[C@H](C)CC[C@@H]1[C@@]24OO3 | 9 µM
– | C[C@@H]1CC[C@H]2[C@@H](CCCC(F)(F)F)C(=O)O[C@@H]3O[C@@]4(C)CC[C@@H]1[C@]32OO4 | 79 µM
– | C[C@@H]1CC[C@H]2[C@H](CCCc3ccccc3)C(=O)O[C@@H]3O[C@@]4(C)CC[C@@H]1[C@]32OO4 | 45 µM
– | C[C@@H]1CC[C@H]2[C@@H](CCCCc3ccccc3)C(=O)O[C@@H]3O[C@@]4(C)CC[C@@H]1[C@]32OO4 | 8 µM
– | C[C@@H]1CC[C@H]2[C@@H](CCCc3cccc(F)c3)C(=O)O[C@@H]3O[C@@]4(C)CC[C@@H]1[C@]32OO4 | 4 µM
– | C[C@@H]1CC[C@H]2[C@@H](CCCc3ccc(Cl)cc3)C(=O)O[C@@H]3O[C@@]4(C)CC[C@@H]1[C@]32OO4 | 12 µM
– | COc1ccc(CCC[C@H]2C(=O)O[C@@H]3O[C@@]4(C)CC[C@H]5[C@H](C)CC[C@@H]2[C@@]35OO4)cc1 | 12 µM

IC50 (Trypanosoma cruzi) | SMILES | IC50 (Leishmania donovani)
– | CSc1ccc(CCC[C@H]2C(=O)O[C@@H]3O[C@@]4(C)CC[C@H]5[C@H](C)CC[C@@H]2[C@@]35OO4)cc1 | 1 µM
– | C[C@@H]1CC[C@H]2[C@@H](CCCc3ccc(S(C)(=O)=O)cc3)C(=O)O[C@@H]3O[C@@]4(C)CC[C@@H]1[C@]32OO4 | 54 µM
– | C[C@@H]1CC[C@H]2[C@@H](CCCc3cc(F)cc(F)c3)C(=O)O[C@@H]3O[C@@]4(C)CC[C@@H]1[C@]32OO4 | 50 µM
81 µM | O=C(/C=C/C=C/c1ccc2c(c1)OCO2)NCC1CCCCC1 | –
1 µM | C[C@]12CC[C@H](O)C[C@@H]1CC[C@@H]1[C@@H]2CC[C@@]2(C)[C@H]1CC[C@@H]2[C@@](C)(O)C1CCCCN1 (some centres undefined) | –
100 µM | CSCCOc1ccc(Oc2ccccc2)cc1 | –
60 µM | c1ccc(CSCCOc2ccc(Oc3ccccc3)cc2)cc1 | –
8 µM | N#CSCCOc1ccc([S+]([O-])c2ccccc2)cc1 (centres undefined) | –
– | C[C@@H]1CC[C@H]2[C@@H](CCCc3ccc(Cl)cc3)CO[C@@H]3O[C@@]4(C)CC[C@@H]1[C@]32OO4 | 5 µM
– | C[C@@H]1CC[C@H]2[C@@H](CCCc3ccc(C(F)(F)F)cc3)C(O)O[C@@H]3O[C@@]4(C)CC[C@@H]1[C@]32OO4 (some centres undefined) | 3 µM
– | C[C@@H]1CC[C@H]2[C@@H](CCCc3ccc(C(F)(F)F)cc3)CO[C@@H]3O[C@@]4(C)CC[C@@H]1[C@]32OO4 | 2 µM
– | C[C@@H]1CC[C@H]2[C@@H](CCCc3cccc(Cl)c3)CO[C@@H]3O[C@@]4(C)CC[C@@H]1[C@]32OO4 | 4 µM
– | C[C@@H]1CC[C@H]2[C@@H](CCCc3ccc(Cl)cc3)C(O)O[C@@H]3O[C@@]4(C)CC[C@@H]1[C@]32OO4 (some centres undefined) | 5 µM
– | CCCN(CCC)c1c([N+](=O)[O-])cc(S(=O)(=O)Nc2cc(Cl)cc(Cl)c2)cc1[N+](=O)[O-] | 4 µM
– | CCC[C@@]12CC[C@H]3[C@H](C)CC[C@H]4CC(=O)O[C@H](O1)[C@]43OO2 | 41 µM
– | CCOC(=O)CC[C@@]12CC[C@H]3[C@H](C)CC[C@H]4CC(=O)O[C@H](O1)[C@]43OO2 | 31 µM
7 µM | O=C(/C=C/C=C/C=C/c1ccc2c(c1)OCO2)N1CCCCC1 | –
83 µM | O=C(/C=C/C=C/c1ccc2c(c1)OCO2)OC1CCCCC1 | –

SMILES | IC50 (Trypanosoma cruzi) | IC50 (Leishmania donovani)
c1ccc(Oc2ccc(OCN3CC3)cc2)cc1 | 42 µM | –
N#CSCCOc1ccc(Nc2ccccc2)cc1 | 3 µM | –

Source: ChEMBL document CHEMBL1212812, “Multi-target spectral moment QSAR versus ANN for antiparasitic drugs against different parasite species” (Bioorg Med Chem, 2010)
